Reference: ChEMBL document CHEMBL1143550, “A structural screening approach to ketoamide-based inhibitors of cathepsin K” (Bioorg Med Chem Lett, 2005)
Values after ≈ are worked out from the molar mass of the structure shown.

How the values were obtained:
[1] = target: T1, Cathepsin K (Homo sapiens, UniProt P43235); assay: Inhibitory concentration against human cathepsin K
T1 sequence (P43235 whole entry): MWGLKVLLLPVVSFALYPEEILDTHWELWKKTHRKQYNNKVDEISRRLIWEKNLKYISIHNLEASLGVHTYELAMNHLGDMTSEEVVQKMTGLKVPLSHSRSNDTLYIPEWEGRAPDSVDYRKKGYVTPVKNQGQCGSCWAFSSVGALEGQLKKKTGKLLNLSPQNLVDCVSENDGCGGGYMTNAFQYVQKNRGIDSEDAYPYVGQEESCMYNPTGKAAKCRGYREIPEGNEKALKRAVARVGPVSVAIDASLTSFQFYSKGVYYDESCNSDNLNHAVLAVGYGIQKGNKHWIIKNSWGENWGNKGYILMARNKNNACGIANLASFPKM

[2] = target: Cathepsin B (Homo sapiens, UniProt P07858); assay: Inhibitory concentration against human cathepsin B by fluorescence assay using 10 uM Cbz-Phe-Arg-AMC
[3] = target: Procathepsin L (Homo sapiens, UniProt P07711); assay: Inhibitory concentration against human cathepsin L by fluorescence assay using 5 uM Cbz-Phe-Arg-AMC
[4] = target: T2, Cathepsin L2 (Homo sapiens, UniProt O60911); assay: Inhibitory concentration against human cathepsin V by fluorescence assay using 2 uM Cbz-Phe-Arg-AMC
T2 sequence (O60911 whole entry): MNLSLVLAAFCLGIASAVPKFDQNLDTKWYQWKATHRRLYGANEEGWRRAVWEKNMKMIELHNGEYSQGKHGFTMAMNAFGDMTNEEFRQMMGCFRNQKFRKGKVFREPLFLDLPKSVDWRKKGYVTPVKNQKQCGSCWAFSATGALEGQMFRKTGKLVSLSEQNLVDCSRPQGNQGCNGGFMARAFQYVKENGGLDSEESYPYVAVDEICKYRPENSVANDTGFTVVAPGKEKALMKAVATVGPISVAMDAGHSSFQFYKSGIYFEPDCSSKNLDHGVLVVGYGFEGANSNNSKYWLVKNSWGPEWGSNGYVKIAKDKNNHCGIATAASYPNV

[5] = target: Cathepsin S (Homo sapiens, UniProt P25774); assay: Inhibitory concentration against human cathepsin S by fluorescence assay using 10 uM Cbz-Val-Val-Arg-AMC
[6] = target: T3, Pro-cathepsin H (Homo sapiens, UniProt P09668); assay: Inhibitory concentration against human cathepsin H by fluorescence assay using 50 uM L-Arg-b-naphthalamide
T3 sequence (P09668 whole entry): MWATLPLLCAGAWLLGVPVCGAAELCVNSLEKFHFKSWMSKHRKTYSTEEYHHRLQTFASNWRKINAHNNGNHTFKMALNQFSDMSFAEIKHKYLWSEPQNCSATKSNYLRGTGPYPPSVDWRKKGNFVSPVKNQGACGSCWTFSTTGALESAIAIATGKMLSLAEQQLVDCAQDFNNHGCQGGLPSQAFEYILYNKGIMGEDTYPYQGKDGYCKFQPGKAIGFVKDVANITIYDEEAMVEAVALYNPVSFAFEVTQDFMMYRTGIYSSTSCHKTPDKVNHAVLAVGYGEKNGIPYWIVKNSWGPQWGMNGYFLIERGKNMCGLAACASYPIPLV

[7] = Total clearance after intravenous administration of […] mg/kg in rats was determined; assay type: ADME, organism-based; settings: rat, in vivo, 2.5 mg/kg, read-out: C1
[8] = Equilibrium solubility in fasted state-simulated intestinal fluid at pH 6.8 was determined; assay type: ADME
[9] = Half-life after intravenous administration of […] mg/kg in rats was determined; assay type: ADME, organism-based; settings: rat, in vivo, 2.5 mg/kg
[10] = Steady state volume of distribution after intravenous administration of 2.5 mg/kg in rats was determined; assay type: ADME, organism-based; set-up: dose 2.5 mg/kg, route intravenous; settings: rat, in vivo, read-out: Vss
[11] = Oral bioavailability in rat (dose 5 mg/kg p.o.); settings: in vivo
[12] = solubility in fasted state stimulated intestinal fluid (pH6.8); assay type: ADME; settings: rat, fasted state simulated intestinal fluid, pH 6.8

Sequence of Procathepsin L (P07711 whole entry): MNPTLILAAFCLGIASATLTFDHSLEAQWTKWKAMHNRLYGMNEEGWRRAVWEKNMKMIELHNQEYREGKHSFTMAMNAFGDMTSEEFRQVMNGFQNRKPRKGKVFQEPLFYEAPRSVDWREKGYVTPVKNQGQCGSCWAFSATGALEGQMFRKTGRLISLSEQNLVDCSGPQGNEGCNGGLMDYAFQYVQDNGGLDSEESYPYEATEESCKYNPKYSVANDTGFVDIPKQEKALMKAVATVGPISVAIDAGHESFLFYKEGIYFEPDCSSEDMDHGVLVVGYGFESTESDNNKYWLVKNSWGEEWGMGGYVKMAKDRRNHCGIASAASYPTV
Sequence of Cathepsin S (P25774 whole entry): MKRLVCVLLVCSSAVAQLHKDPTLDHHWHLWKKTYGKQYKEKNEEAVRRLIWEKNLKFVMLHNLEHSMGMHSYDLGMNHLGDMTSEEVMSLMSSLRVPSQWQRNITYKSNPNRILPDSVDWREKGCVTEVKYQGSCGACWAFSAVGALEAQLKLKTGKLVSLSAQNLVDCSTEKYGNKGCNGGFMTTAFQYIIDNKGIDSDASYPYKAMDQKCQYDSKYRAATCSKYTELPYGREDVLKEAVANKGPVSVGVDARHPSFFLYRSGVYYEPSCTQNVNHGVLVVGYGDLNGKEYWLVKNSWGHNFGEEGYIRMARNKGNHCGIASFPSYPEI

| IC50 [1] [nM] | IC50 [2] [nM] | IC50 [3] [nM] | IC50 [4] [nM] | IC50 [5] [nM] | IC50 [6] [nM] | clearance [7] [mL/min/kg] | solubility thermodynamic [8] [µg/mL] | half-life [9] [min] | Vd [10] [L/kg] | bioavailability [11] [%] | solubility [12] [µg/mL] | SMILES |
| --- | --- | --- | --- | --- | --- | --- | --- | --- | --- | --- | --- | --- |
| 2.5 | 1400 | 150 | 29 | 18 | > 13000 | 48 | 800 (≈ 1920 µM) | 62 | 1.3 | 25 | – | CCCC[C@H](NC(=O)O[C@@H]1C(=O)NCC1(C)C)C(=O)C(=O)N[C@H](C)c1ccccc1 |
| 190 | > 13000 | 6800 | 2000 | 290 | > 13000 | – | – | – | – | – | – | CCCC[C@H](NC(=O)OC1C[C@H](C)C[C@@H](C)C1)C(=O)C(=O)N[C@H](C)c1ccccc1 (some centres undefined) |
| 100 | > 13000 | 460 | 290 | 280 | > 13000 | – | – | – | – | – | – | CCCC[C@H](NC(=O)O[C@H]1CCc2ccccc21)C(=O)C(=O)N[C@H](C)c1ccccc1 |
| 3 | > 500 | 410 | 79 | 13 | > 500 | 460 | – | 11 | 3.4 | 0 | 240 (≈ 573 µM) | CCCC[C@H](NC(=O)O[C@@H]1C(=O)OCC1(C)C)C(=O)C(=O)N[C@H](C)c1ccccc1 |

Continued, compound first:

| SMILES | IC50 [1] [nM] | IC50 [2] [nM] | IC50 [3] [nM] | IC50 [4] [nM] | IC50 [5] [nM] | IC50 [6] [nM] | clearance [7] [mL/min/kg] | solubility thermodynamic [8] [µg/mL] | half-life [9] [min] | Vd [10] [L/kg] | bioavailability [11] [%] | solubility [12] [µg/mL] |
| --- | --- | --- | --- | --- | --- | --- | --- | --- | --- | --- | --- | --- |
| CCCC[C@H](NC(=O)OC1C2(C)CCC(C2)C1(C)C)C(=O)C(=O)N[C@H](C)c1ccccc1 (some centres undefined) | 5.7 | 12000 | 1700 | 180 | 30 | > 13000 | – | – | – | – | – | – |
| CCCC[C@H](NC(=O)O[C@H]1CCCc2ccccc21)C(=O)C(=O)N[C@H](C)c1ccccc1 | 32 | > 2000 | 660 | 340 | 79 | > 2000 | – | – | – | – | – | – |
| CCCC[C@H](NC(=O)OC1CC2CCC1C2)C(=O)C(=O)N[C@H](C)c1ccccc1 (some centres undefined) | 26 | > 13000 | 1000 | 190 | 19 | > 13000 | – | – | – | – | – | – |
| CCCC[C@H](NC(=O)OC1C2CC3CC(C2)CC1C3)C(=O)C(=O)N[C@H](C)c1ccccc1 (some centres undefined) | 7.2 | > 5000 | 2600 | 390 | 16 | > 5000 | – | – | – | – | – | – |
| CCCC[C@H](NC(=O)O[C@@H]1C[C@H](C)C[C@H](C)C1)C(=O)C(=O)N[C@H](C)c1ccccc1 | 350 | > 13000 | 4400 | 2800 | 63 | > 13000 | – | – | – | – | – | – |
